From PMC9412022, “Integrate thermostabilized fusion protein apocytochrome b 562 RIL and N-glycosylation mutations: A novel approach to heterologous expression of human UDP-glucuronosyltransferase (UGT) 2B7” (Frontiers in Pharmacology, 2022)
Positions count from the first letter of the chain named.

What was measured:
[1] = molecular target: T1, UGT2B7 (N315A)-BRIL (Homo sapiens, UniProt P16662, N315A); assay: Surface plasmon resonance binding to purified UGT2B7 (N315A)-BRIL; details: SPR, 25°C, Biacore T200, CM7 chip, steady-state affinity model
T1 construct: we selected the full-length UGT2B7 (N315A)-BRIL construct with BRIL covalently attached to the C-terminus of UGT2B7; made in house; host or cells: Spodoptera frugiperda Sf9 insect cells (Bac-to-Bac baculovirus)
T1 sequence (P16662 24-529 N315A): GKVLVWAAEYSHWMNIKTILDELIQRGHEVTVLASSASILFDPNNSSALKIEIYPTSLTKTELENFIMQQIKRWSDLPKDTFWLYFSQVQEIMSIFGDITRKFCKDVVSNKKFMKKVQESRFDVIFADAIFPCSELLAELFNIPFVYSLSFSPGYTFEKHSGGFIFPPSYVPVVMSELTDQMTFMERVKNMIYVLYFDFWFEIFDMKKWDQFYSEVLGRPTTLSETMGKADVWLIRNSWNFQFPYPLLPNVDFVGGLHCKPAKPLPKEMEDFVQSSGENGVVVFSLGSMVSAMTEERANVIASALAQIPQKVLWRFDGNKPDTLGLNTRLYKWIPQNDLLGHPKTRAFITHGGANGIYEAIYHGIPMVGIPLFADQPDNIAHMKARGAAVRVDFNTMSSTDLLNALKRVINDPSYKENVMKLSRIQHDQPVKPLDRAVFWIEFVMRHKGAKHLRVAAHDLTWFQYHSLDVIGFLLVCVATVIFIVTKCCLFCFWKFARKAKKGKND
Description: All experiments were performed with a running buffer containing phosphate buffer (pH 7.4), 0.002% LMNG, and 0.0002% CHS to maintain the concentration of detergent above the critical micelle concentration, which is necessary for the formation of micelles and the correct folding of the purified UGT2B7 proteins. About 8,500 response units of 6 × His-tag monoclonal antibody (Proteintech) were directly immobilized on the chip, which were desalted in 10 mM sodium acetate (pH 4.5). Then the purified UGT2B7 proteins flowed over the chip and coupled with the His-tag antibody at about 18,000 RU. And the blank channel was used as the negative control. Substrates or inhibitors solutions flowed over the chip at a flow rate of 30 μl/min and were contacted 120 s. Then, flowed running buffer at the same rate to dissociation 120 s. The obtained affinities data were analyzed with the BIA evaluation software using the steady-state affinity model.

[2] = molecular target: T2, UGT2B7-BRIL (Homo sapiens, UniProt P16662); assay: CPM thermostability assay (melting temperature) of UGT2B7-BRIL in the presence of compounds; format: binding; details: apo protein Tm […]; for melting temperature (Tm) of UGT2B7-BRIL in the presence of the compound alone: CPM fluorescence, 20-95°C ramp
T2 construct: 10xHis (C); made in house; host or cells: Spodoptera frugiperda Sf9 insect cells (Bac-to-Bac baculovirus)
T2 sequence (P16662 24-529): T1 sequence (P16662 24-529 N315A) with A292N
Description: The gain setting was determined at the beginning of the run and the melting temperature (Tm) was calculated from the point of inflection.

[3] = test system: purified UGT2B7 proteins; assay: Glucuronidation of zidovudine by purified UGT2B7 proteins in detergent LMNG/CHS; format: in vitro ADME, human; details: purified protein in detergent LMNG/CHS, no phospholipid bilayer

Row | Kd [1] [µM] | melting temperature (Tm) of UGT2B7-BRIL in the presence of the compound alone [2] [°C] | glucuronidation by purified UGT2B7 proteins [3] | melting temperature (Tm) of UGT2B7-BRIL in the presence of both cofactor (UDP) and substrate ([2]; substrate + UDP) [°C] | Compound
1 | 17.3 |  |  |  | COc1cc2c(c(O)c1OC)-c1c(cc(OC)c(OC)c1OC)C[C@@H](C)[C@@H](C)C2 [Schisanhenol]
2 | 589 | 50.9 |  |  | O=c1ccn([C@@H]2O[C@H](COP(=O)([O-])OP(=O)([O-])O)[C@@H](O)[C@H]2O)c(=O)[nH]1.[Na+].[Na+] [UDP, uridine 5′-diphosphate disodium salt]
3 |  | 53.2 | not observed | 61.0 | Cc1cn([C@H]2C[C@H](N=[N+]=[N-])[C@@H](CO)O2)c(=O)[nH]c1=O [Zidovudine]
4 | 49.8 |  |  |  | COc1ccc([C@@H]2CC(=O)c3c(O)cc(O)cc3O2)cc1O [Hesperetin]
